Experimental data published in US20260242427A1 (priority 2024, published 2026).

Legend:
[1] = target: T1, hArg-Cry1Ab fusion particles (human arginase I fused to the N-terminus of Cry1Ab) (Homo sapiens, UniProt P05089); test: Kinetic studies, immobilized hArg-Cry1Ab particles; format: biochemical; details: L-arginine 0-500 mM, 40° C., pH 8.0, 0.1 mM Mn^2+, based on concentration of hArg
T1 construct: His tag of pET28 (inferred from the NdeI forward primer only) (N); made in house; host or cells: E. coli BL21(DE3)

[2] = target: T2, human arginase I (hArg, Accession Number: NM_000045.4), free enzyme (Homo sapiens, UniProt P05089); format: biochemical; details: L-arginine 0-500 mM, 40° C., 50 mM HEPES pH 8.0, 0.1 mM Mn^2+
T2 construct: His tag with thrombin site of pET28 (inferred from the NdeI primer, the stop codon in the reverse primer and nickel purification); made in house; host or cells: E. coli BL21(DE3)
Description: All positive colonies were verified by DNA sequencing (BGI).
Expression and Purification of ODC and hArg Free Enzymes
(§1) All experiments were performed in triplicate.
as §1

[3] = target: T3, 3A-PEI crystals (polyethylenimine-modified Cry3Aa, Bacillus thuringiensis) (Bacillus thuringiensis subsp. tenebrionis, UniProt P0A379); test: NADH binding capacity of 3A-PEI crystals; details: NaPB 25 mM
T3 construct: made in house; host or cells: Bacillus thuringiensis BT407G
T3 sequence (P0A379 1-644): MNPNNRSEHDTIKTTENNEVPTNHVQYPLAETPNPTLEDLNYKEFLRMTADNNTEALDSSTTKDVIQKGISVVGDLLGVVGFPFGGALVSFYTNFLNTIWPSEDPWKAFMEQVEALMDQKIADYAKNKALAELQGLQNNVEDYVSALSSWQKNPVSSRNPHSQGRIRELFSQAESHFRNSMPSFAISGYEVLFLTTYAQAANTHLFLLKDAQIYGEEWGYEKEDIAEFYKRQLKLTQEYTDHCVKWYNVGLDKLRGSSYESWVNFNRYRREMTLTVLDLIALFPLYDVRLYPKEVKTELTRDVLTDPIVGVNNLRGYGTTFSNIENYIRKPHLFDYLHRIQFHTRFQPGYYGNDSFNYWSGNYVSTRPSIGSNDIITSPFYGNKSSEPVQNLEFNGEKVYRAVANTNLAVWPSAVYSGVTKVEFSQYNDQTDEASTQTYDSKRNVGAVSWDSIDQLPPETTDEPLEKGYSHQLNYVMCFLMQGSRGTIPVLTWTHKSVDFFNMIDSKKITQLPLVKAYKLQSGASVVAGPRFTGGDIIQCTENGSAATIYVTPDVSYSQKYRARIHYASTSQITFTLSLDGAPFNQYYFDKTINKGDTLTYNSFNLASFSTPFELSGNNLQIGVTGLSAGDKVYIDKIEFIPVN

[4] = target: T4, Pos3Aa crystals (positively charged variant of Cry3Aa, domain II surface residues mutated) (Bacillus thuringiensis, UniProt P0A379); test: NADH binding capacity of Pos3Aa crystals; details: 0.25 mM NADH, 10° C., 30 min, 340 nm
T4 construct: engineered Cry3Aa, domain II surface residues replaced by Lys/Arg; no PEI; crystals produced in Bacillus thuringiensis (usual host)
Description: Previous studies by our lab had generated a positively charged variant of Cry3Aa, Pos3Aa, by mutating multiple residues on the surface of domain II of Cry3Aa to lysines creating a positively charged surface.
To compare the binding capacity of 3A-PEI crystals with Cry3Aa and Pos3Aa crystals, the same experiment was conducted as the control.
Cry3Aa is a self-crystallization protein produced naturally by certain strains of Bt. Our group has used crystals and particles of Cry3Aa for entrapment of positively charged small peptides and proteins due to the presence of abundant negatively charged residues, aspartic acid (Asp) and glutamic acid (Glu) residues, on the exposed surface of its domain II, which forms the solvent channels (FIG. 1A). We have engineered a protein called Pos3Aa, derived from the replacement of all these residues in domain II of Cry3Aa with positively charged arginine (Arg) and lysine (Lys) residues, which provide positively charged channels within the crystals. We hypothesized that these crystals would be able to entrap negatively charged molecules, such as phosphorylated cofactors, ionically inside the channels. […] Each molecular mass unit of this polymer (43 kDa) has 3 to 3.6-fold higher protonated nitrogen than poly-Arg and poly-Lys (one positive charge per 157 and 129 molecular masses), respectively. […]

[5] = target: T2, human arginase I (hArg, Accession Number: NM_000045.4), free enzyme; test: Effect of urea on the activity of hArg; format: biochemical; details: 0 to 1 M urea, 40° C., 6 h
Description: as §1, §1

T2 sequence (P05089 whole entry): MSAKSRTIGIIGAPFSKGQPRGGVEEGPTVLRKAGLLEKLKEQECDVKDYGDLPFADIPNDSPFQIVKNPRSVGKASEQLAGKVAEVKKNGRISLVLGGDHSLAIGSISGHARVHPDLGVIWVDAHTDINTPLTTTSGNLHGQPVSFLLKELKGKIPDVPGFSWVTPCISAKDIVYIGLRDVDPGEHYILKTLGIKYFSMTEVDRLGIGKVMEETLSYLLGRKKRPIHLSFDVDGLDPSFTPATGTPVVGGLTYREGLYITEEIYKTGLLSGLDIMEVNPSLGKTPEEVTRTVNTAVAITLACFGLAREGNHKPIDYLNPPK
T1 sequence (P05089 other isoform, or with tags, fused parts or gaps): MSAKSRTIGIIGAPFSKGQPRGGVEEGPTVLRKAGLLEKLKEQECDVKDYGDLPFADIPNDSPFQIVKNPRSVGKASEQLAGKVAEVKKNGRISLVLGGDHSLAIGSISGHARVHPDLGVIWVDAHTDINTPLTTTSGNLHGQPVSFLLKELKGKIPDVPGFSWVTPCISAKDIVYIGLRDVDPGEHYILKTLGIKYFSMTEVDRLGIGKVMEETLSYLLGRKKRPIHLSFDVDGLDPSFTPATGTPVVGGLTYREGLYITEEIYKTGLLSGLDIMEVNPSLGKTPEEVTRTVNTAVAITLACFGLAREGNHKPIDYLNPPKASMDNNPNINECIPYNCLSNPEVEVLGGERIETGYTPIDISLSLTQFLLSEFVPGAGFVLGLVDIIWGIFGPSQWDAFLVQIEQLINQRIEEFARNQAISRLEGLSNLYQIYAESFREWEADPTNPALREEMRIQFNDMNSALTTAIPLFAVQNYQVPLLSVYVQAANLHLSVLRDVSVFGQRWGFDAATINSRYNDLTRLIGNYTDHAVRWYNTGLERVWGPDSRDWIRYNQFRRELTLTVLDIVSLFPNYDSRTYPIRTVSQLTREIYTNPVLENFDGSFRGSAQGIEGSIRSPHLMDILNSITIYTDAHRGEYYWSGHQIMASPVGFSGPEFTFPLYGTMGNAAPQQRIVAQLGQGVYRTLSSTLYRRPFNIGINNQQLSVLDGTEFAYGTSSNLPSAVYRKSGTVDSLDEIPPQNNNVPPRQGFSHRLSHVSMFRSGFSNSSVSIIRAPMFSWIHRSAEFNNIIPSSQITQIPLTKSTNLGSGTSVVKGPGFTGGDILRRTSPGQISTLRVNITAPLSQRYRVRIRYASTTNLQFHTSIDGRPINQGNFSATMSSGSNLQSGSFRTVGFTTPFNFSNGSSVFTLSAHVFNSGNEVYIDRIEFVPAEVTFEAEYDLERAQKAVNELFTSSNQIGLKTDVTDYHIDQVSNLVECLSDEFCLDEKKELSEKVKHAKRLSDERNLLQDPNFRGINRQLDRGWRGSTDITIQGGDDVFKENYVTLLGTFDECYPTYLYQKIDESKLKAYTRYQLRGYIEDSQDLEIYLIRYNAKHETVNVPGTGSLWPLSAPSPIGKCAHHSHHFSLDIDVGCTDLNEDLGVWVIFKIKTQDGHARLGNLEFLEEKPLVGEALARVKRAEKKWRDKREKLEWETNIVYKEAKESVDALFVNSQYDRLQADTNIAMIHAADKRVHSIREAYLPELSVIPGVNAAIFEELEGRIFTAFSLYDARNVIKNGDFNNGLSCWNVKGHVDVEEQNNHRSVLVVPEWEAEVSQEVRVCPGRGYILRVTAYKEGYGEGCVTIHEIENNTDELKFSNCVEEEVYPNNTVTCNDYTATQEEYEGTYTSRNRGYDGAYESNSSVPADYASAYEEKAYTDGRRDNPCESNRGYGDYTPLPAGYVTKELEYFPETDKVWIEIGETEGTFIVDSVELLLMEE

How did the kcat [1] turn out when `N=C(N)NCCC[C@H](N)C(=O)O` [L-arginine] was run?
Its kcat is 59.7 ± 0.8 s⁻¹.

What about the Km ([1]; read-out: appKm) of the same compound?
Its Km is 18.5 ± 0.3 mM.

And the kcat [2]?
Its kcat is 99.9 ± 1.7 s⁻¹.

What about the Km ([2]; read-out: appKm) of the same compound?
Its Km is 20 ± 1.3 mM.

Which NADH binding capacity ([3]; pH 6.0) does the source give for `NC(=O)C1=CN([C@@H]2O[C@H](COP(=O)(O)OP(=O)(O)OC[C@H]3O[C@@H](n4cnc5c(N)ncnc54)[C@H](O)[C@@H]3O)[C@@H](O)[C@H]2O)C=CC1` [NADH, nicotinamide adenine dinucleotide] here?
The NADH binding capacity was 453.5 ± 2.8 µmol/g.

And the NADH binding capacity ([3]; pH 7.0)?
The NADH binding capacity was 412 ± 4 µmol/g.

What about the NADH binding capacity ([3]; pH 8.0) of the same compound?
Its NADH binding capacity is 350.2 ± 3.6 µmol/g.

What about the NADH binding capacity [4] of the same compound?
Its NADH binding capacity is 11.2 ± 0.7 µmol/g.

Which “effect of urea on activity” value [5] does the source give for `NC(N)=O` [urea] here?
The value was “unaffected”.
